Test: xn = mol fraction of the nth substance listed
Conditions: 101 kPa, Liquid

CCCCCC [hexane] + CCCCCCC
mass density [kg/m3]
Conditions | x1 = 0.1019 | x1 = 0.2003 | x1 = 0.3005 | x1 = 0.4007 | x1 = 0.5001 | x1 = 0.5984 | x1 = 0.7002 | x1 = 0.7995 | x1 = 0.8974
273.15 K | 698.37 | 696.77 | 694.27 | 692.25 | 689.57 | 687.14 | 684.81 | 682.14 | 679.66
278.15 K | 694.22 | 692.61 | 690.08 | 688.04 | 685.35 | 682.88 | 680.52 | 677.82 | 675.32
283.15 K | 690.04 | 688.42 | 685.86 | 683.8 | 681.08 | 678.58 | 676.2 | 673.47 | 670.94
288.15 K | 685.84 | 684.21 | 681.62 | 679.53 | 676.79 | 674.26 | 671.85 | 669.1 | 666.54
293.15 K | 681.62 | 679.97 | 677.36 | 675.24 | 672.47 | 669.91 | 667.47 | 664.69 | 662.1
298.15 K | 677.38 | 675.7 | 673.06 | 670.93 | 668.12 | 665.53 | 663.06 | 660.24 | 657.62
303.15 K | 673.11 | 671.42 | 668.74 | 666.58 | 663.74 | 661.12 | 658.62 | 655.77 | 653.12
308.15 K | 668.81 | 667.09 | 664.39 | 662.2 | 659.32 | 656.67 | 654.14 | 651.25 | 648.57
313.15 K | 664.47 | 662.74 | 660 | 657.78 | 654.86 | 652.19 | 649.62 | 646.69 | 643.98
318.15 K | 660.11 | 658.36 | 655.58 | 653.33 | 650.35 | 647.66 | 645.06 | 642.1 | 639.34
323.15 K | 655.71 | 653.93 | 651.12 | 648.84 | 645.81 | 643.1 | 640.45 | 637.45 | 634.65
328.15 K | 651.27 | 649.47 | 646.62 | 644.31 | 641.22 | 638.48 | 635.8 | 632.76 | 629.92
333.15 K | 646.79 | 644.97 | 642.07 | 639.73 | 636.58 | 633.82 | 631.24 | 628.01 | 625.13
338.15 K | 642.28 | 640.43 | 637.49 | 635.11 | 631.89 | – | 626.48 | 623.2 | 620.28
343.15 K | 637.71 | 635.84 | 632.85 | 630.44 | 627.14 | – | 621.67 | – | –
348.15 K | 633.1 | 631.2 | 628.16 | 625.71 | 622.33 | – | 616.8 | – | –
353.15 K | 628.43 | 626.5 | 623.42 | 620.92 | – | – | – | – | –
358.15 K | 623.71 | 621.75 | 618.61 | 616.08 | – | – | – | – | –
363.15 K | 618.94 | 616.94 | 613.75 | 611.16 | – | – | – | – | –

CCCCC [pentane] + CCCCCC
Conditions | mass density [kg/m3]
273.15 K, x1 = 0.0999 | 674.29
273.15 K, x1 = 0.1996 | 671.84
273.15 K, x1 = 0.2998 | 668.66
273.15 K, x1 = 0.3884 | 666.23
273.15 K, x1 = 0.5 | 662.72
273.15 K, x1 = 0.6 | 659.97
273.15 K, x1 = 0.7001 | 657
273.15 K, x1 = 0.8995 | 650.09
273.16 K, x1 = 0.8011 | 653.2
278.15 K, x1 = 0.0999 | 669.9
278.15 K, x1 = 0.1996 | 667.39
278.15 K, x1 = 0.2998 | 664.21
278.15 K, x1 = 0.3884 | 661.71
278.15 K, x1 = 0.5 | 658.2
278.15 K, x1 = 0.6 | 655.38
278.15 K, x1 = 0.7001 | 652.36
278.15 K, x1 = 0.8011 | 648.53
278.15 K, x1 = 0.8995 | 645.39
283.14 K, x1 = 0.3884 | 657.16
283.14 K, x1 = 0.6 | 650.74
283.14 K, x1 = 0.7001 | 647.7
283.14 K, x1 = 0.8011 | 643.81
283.14 K, x1 = 0.8995 | 640.63
283.15 K, x1 = 0.0999 | 665.46
283.15 K, x1 = 0.1996 | 662.9
283.15 K, x1 = 0.2998 | 659.71
283.15 K, x1 = 0.5 | 653.63
288.14 K, x1 = 0.1996 | 658.38
288.14 K, x1 = 0.3884 | 652.56
288.14 K, x1 = 0.6 | 646.06
288.14 K, x1 = 0.7001 | 642.98
288.14 K, x1 = 0.8995 | 635.83
288.15 K, x1 = 0.0999 | 661
288.15 K, x1 = 0.2998 | 655.18
288.15 K, x1 = 0.5 | 649.01
288.15 K, x1 = 0.8011 | 639.05
293.14 K, x1 = 0.6 | 641.34
293.14 K, x1 = 0.7001 | 638.21
293.15 K, x1 = 0.0999 | 656.49
293.15 K, x1 = 0.1996 | 653.82
293.15 K, x1 = 0.2998 | 650.6
293.15 K, x1 = 0.3884 | 647.93
293.15 K, x1 = 0.5 | 644.36
293.15 K, x1 = 0.8011 | 634.24
293.15 K, x1 = 0.8995 | 630.97
298.14 K, x1 = 0.1996 | 649.22
298.14 K, x1 = 0.3884 | 643.25
298.14 K, x1 = 0.6 | 636.57
298.14 K, x1 = 0.7001 | 633.51
298.14 K, x1 = 0.8995 | 626.07
298.15 K, x1 = 0.0999 | 651.95
298.15 K, x1 = 0.2998 | 645.98
298.15 K, x1 = 0.5 | 639.66
298.15 K, x1 = 0.8011 | 629.38
303.14 K, x1 = 0.1996 | 644.58
303.14 K, x1 = 0.3884 | 638.53
303.14 K, x1 = 0.6 | 631.74
303.14 K, x1 = 0.7001 | 628.65
303.14 K, x1 = 0.8011 | 624.47
303.15 K, x1 = 0.0999 | 647.36
303.15 K, x1 = 0.2998 | 641.31
303.15 K, x1 = 0.5 | 634.91
303.15 K, x1 = 0.8995 | 621.11
308.14 K, x1 = 0.7001 | 623.75
308.15 K, x1 = 0.0999 | 642.74
308.15 K, x1 = 0.1996 | 639.9
308.15 K, x1 = 0.2998 | 636.59
308.15 K, x1 = 0.3884 | 633.76
308.15 K, x1 = 0.5 | 630.1
308.15 K, x1 = 0.6 | 626.86
308.15 K, x1 = 0.8011 | 619.5
308.15 K, x1 = 0.8995 | 616.08
313.14 K, x1 = 0.6 | 621.92
313.14 K, x1 = 0.8011 | 614.47
313.14 K, x1 = 0.8995 | 611
313.15 K, x1 = 0.0999 | 638.06
313.15 K, x1 = 0.1996 | 635.17
313.15 K, x1 = 0.2998 | 631.82
313.15 K, x1 = 0.3884 | 628.94
313.15 K, x1 = 0.5 | 625.24
313.15 K, x1 = 0.7001 | 618.75
318.14 K, x1 = 0.3884 | 624.06
318.14 K, x1 = 0.6 | 616.92
318.14 K, x1 = 0.7001 | 613.89
318.14 K, x1 = 0.8995 | 605.86
318.15 K, x1 = 0.0999 | 633.32
318.15 K, x1 = 0.1996 | 630.38
318.15 K, x1 = 0.5 | 620.41
318.15 K, x1 = 0.8011 | 609.38
323.14 K, x1 = 0.1996 | 625.55
323.14 K, x1 = 0.5 | 615.41
323.14 K, x1 = 0.8995 | 600.65
323.15 K, x1 = 0.0999 | 628.53
323.15 K, x1 = 0.6 | 611.84
328.14 K, x1 = 0.1996 | 620.65
328.15 K, x1 = 0.0999 | 623.68
328.15 K, x1 = 0.5 | 610.35
328.15 K, x1 = 0.6 | 606.69
333.15 K, x1 = 0.0999 | 618.77
333.15 K, x1 = 0.1996 | 615.6

CCCCC [pentane] + CCCCCCC
mass density [kg/m3]
Conditions | x1 = 0.1014 | x1 = 0.2019 | x1 = 0.3011 | x1 = 0.4001 | x1 = 0.4997 | x1 = 0.5999 | x1 = 0.698 | x1 = 0.7991 | x1 = 0.8992
273.14 K | – | 691.57 | – | – | – | – | – | – | –
273.15 K | 696.24 | – | 686.91 | 682.43 | 677.18 | 671.16 | 665.42 | 659.05 | 652.37
278.15 K | 692.07 | 687.35 | 682.65 | 678.13 | 672.82 | 666.73 | 660.92 | 654.47 | 647.72
283.15 K | 687.87 | 683.1 | 678.35 | 673.78 | 668.42 | 662.25 | 656.37 | 649.85 | 643.01
288.15 K | 683.65 | 678.83 | 674.03 | 669.41 | 663.99 | 657.74 | 651.79 | 645.18 | 638.26
293.15 K | 679.4 | 674.53 | 669.67 | 665.01 | 659.51 | 653.19 | 647.17 | 640.48 | 633.46
298.15 K | 675.12 | 670.21 | 665.29 | 660.56 | 655.01 | 648.6 | 642.5 | 635.73 | 628.61
303.15 K | 670.82 | 665.85 | 660.88 | 656.08 | 650.46 | 643.97 | 637.79 | 630.93 | 623.7
308.15 K | 666.49 | 661.46 | 656.43 | 651.57 | 645.86 | 639.3 | 633.03 | 626.07 | –
313.15 K | 662.08 | 657.04 | 651.94 | 647 | 641.22 | 634.58 | 628.22 | 621.16 | –
318.15 K | 657.69 | 652.58 | 647.42 | 642.39 | 636.53 | – | 623.36 | 616.18 | –
323.15 K | 653.26 | 648.09 | 642.84 | 637.74 | 631.79 | – | 618.43 | 611.14 | –
328.15 K | 648.78 | 643.55 | 638.23 | 633.03 | 626.99 | – | – | – | –
333.15 K | 644.24 | – | 633.57 | 628.26 | 622.13 | – | – | – | –
338.15 K | 639.67 | – | – | 623.48 | 617.2 | – | – | – | –
343.15 K | 635.01 | – | – | 618.87 | – | – | – | – | –
